Measurements from US9499551B2, “Substituted pyrrolo[2,3-b]pyridines for treating cancer or inflammatory diseases” (Confluence Life Sciences, Inc., priority 2014, dated 2016).
pIC50: −log10 of the molar value.

What was measured:
[1] = tested on: IL-6 Production in Human Peripheral Blood Mononuclear Cells (PBMC); assay: LPS stimulated IL-6 production in PBMC cells; type: cell-based; details: read-out: IL-6 Production Inhibition IC50
Procedure: LPS Stimulated IL-6 Production in PBMC Cells:
Lipopolysaccharide (LPS) stimulated IL-6 Production in Human Peripheral Blood Mononuclear Cells (PBMC): The cellular efficacy of compound candidates is determined using peripheral blood mononuclear cells purified from human whole blood, based upon the methods of Burnette et al. (2009) Pharmacology, 84:42-60. PBMC produce a number of cytokines (IL6, IL8, IL1β and TNFα) in response to stimulation with LPS. To induce the production of inflammatory mediators, PBMC are plated at a final concentration of 2×10^5 cells/well in a 96 well flat bottom plate in DMEM medium supplemented with 10% fetal bovine serum, 100 units/ml penicillin and 100 μg/ml streptomycin (Gibco BRL Life Technologies). Cells are treated with or without inhibitors for 1-3 hrs then stimulated with 100 ng/ml LPS (serotype 011:B4, Sigma) for an additional 3 hrs at 37° C. with 5% CO2. The supernatants are removed and stored at −20° C. until they are to be assayed. The levels of inflammatory mediators are determined using commercial MSD cytokine kits (Meso Scale Discovery) as per the manufacturer's instructions. Standard curves are based on 7 steps of 4× serial dilutions, with a wide dynamic range of 10000 pg/ml to 2.4 pg/ml, and a blank. Lower limit of detection (LLOD) is calculated at the commonly used 3× the standard deviation of the blank.

TAK1-TAB1 = biological target: T1, TAK1-TAB1 (Homo sapiens, UniProt O43318); assay: TAK1-TAB1 binding inhibitory potency (LanthaScreen competitive binding assay, kinase tracer-236); details: 10 nM TAK1-TAB1, 100 nM kinase tracer-236; read-out: TAK1-Tab Inhibition IC50
T1 sequence (O43318 with tags, fused parts or gaps limits assumed): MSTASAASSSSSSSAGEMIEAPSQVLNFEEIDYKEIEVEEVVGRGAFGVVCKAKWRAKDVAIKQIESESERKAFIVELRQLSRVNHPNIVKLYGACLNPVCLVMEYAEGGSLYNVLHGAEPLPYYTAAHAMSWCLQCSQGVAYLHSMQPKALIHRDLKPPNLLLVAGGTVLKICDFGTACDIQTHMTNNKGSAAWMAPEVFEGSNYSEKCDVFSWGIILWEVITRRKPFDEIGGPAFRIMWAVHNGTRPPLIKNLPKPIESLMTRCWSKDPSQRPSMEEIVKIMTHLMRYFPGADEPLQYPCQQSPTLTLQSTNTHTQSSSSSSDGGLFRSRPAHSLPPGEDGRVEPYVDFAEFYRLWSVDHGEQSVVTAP
Procedure, shortened: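 Compounds were tested for TAK1-TAB1 binding in a 384-well LanthaScreen competitive FRET assay. TAK1-TAB1 (10 nM) and Eu-anti-his antibody (2 nM) were preincubated with compound for two hours before adding 100 nM Alexa Fluor 647 kinase tracer-236. The buffer was 20 mM HEPES pH 7.5, 10 mM MgCl2, 0.01% BSA, 0.0005% Tween-20 and 2% DMSO. IC50 came from 4-parameter logistic fits of emission ratio over an 11-point series from 20 μM to 0.34 nM.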

pIC50 (TAK1-TAB1) | Compound | pIC50 [1]
≥ 6.00 | CC(C)(O)COc1ccc(-c2cnc3[nH]cc(/C=C/C(N)=O)c3c2)cn1 [Example 291, (E)-3-(5-(6-(2-hydroxy-2-methylpropoxy)pyridin-3-yl)-1H-pyrrolo[2,3-b]pyridin-3-yl)acrylamide] | ≥ 6.00
≥ 6.00 | CC(C)(O)c1ccc(-c2cnc3[nH]cc(/C=C/C(N)=O)c3c2)cc1 [Example 247, (E)-3-(5-(4-(2-hydroxypropan-2-yl)phenyl)-1H-pyrrolo[2,3-b]pyridin-3-yl)acrylamide] | ≥ 6.00
≥ 6.00 | N#Cc1ccc(-c2cnc3[nH]cc(/C=C/C(N)=O)c3c2)cc1 [Example 17, 3-[5-(4-Cyano-phenyl)-1H-pyrrolo[2,3-b]pyridin-3-yl]-acrylamide] | ≥ 6.00
≥ 6.00 | CC(C)(O)COc1ccc(-c2cnc3[nH]cc(/C=C/C(N)=O)c3c2)cc1 [Example 32, (E)-3-(5-(4-(2-hydroxy-2-methylpropoxy)phenyl)-1H-pyrrolo[2,3-b]pyridin-3-yl)acrylamide] | ≥ 6.00
≥ 6.00 | CC(=O)c1ccc(-c2cnc3[nH]cc(/C=C/C(N)=O)c3c2)cc1 [Example 245, (E)-3-(5-(4-acetylphenyl)-1H-pyrrolo[2,3-b]pyridin-3-yl)acrylamide] | ≥ 6.00
≥ 6.00 | CC(C)NC(=O)c1ccc(-c2cnc3[nH]cc(/C=C/C(N)=O)c3c2)cn1 [Example 280, (E)-5-(3-(3-amino-3-oxoprop-1-en-1-yl)-1H-pyrrolo[2,3-b]pyridin-5-yl)-N-isopropyl-picolinamide] | ≥ 6.00

Second part, the compound before the results:

Compound | pIC50 (TAK1-TAB1) | pIC50 [1]
CC(C)Nc1cnc2[nH]cc(/C=C/C(N)=O)c2c1 [Example 9, 3-(5-Isopropylamino-1H-pyrrolo[2,3-b]pyridin-3-yl)-acrylamide] | ≥ 6.00 | ≥ 6.00
Cc1cc(-c2cnc3[nH]cc(/C=C/C(N)=O)c3c2)cc(C(C)(C)C)c1 [Example 256, (E)-3-(5-(3-(tert-butyl)-5-methylphenyl)-1H-pyrrolo[2,3-b]pyridin-3-yl)acrylamide] | ≥ 6.00 | ≥ 6.00
NC(=O)/C=C/c1c[nH]c2ncc(-c3cccnc3)cc12 [Example 13, 3-(5-Pyridin-3-yl-1H-pyrrolo[2,3-b]pyridin-3-yl)-acrylamide] | ≥ 6.00 | ≥ 6.00
CC(O)c1cncc(-c2cnc3[nH]cc(/C=C/C(N)=O)c3c2)c1 (stereo not drawn) [Example 299, (E)-3-(5-(5-(1-hydroxyethyl)pyridin-3-yl)-1H-pyrrolo[2,3-b]pyridin-3-yl)acrylamide] | ≥ 6.00 | < 6.00
CC(C)(C)OC(=O)NC1CN(c2cnc3[nH]cc(/C=C/C(N)=O)c3c2)C1 [Example 269, (E)-tert-butyl(1-(3-(3-amino-3-oxoprop-1-en-1-yl)-1H-pyrrolo[2,3-b]pyridin-5-yl)azetidin-3-yl)carbamate] | ≥ 6.00 | ≥ 6.00
CCOCCN1CCN(c2cnc3[nH]cc(/C=C/C(N)=O)c3c2)CC1 [Example 271, (E)-3-(5-(4-(2-ethoxyethyl)piperazin-1-yl)-1H-pyrrolo[2,3-b]pyridin-3-yl)acrylamide] | ≥ 6.00 | ≥ 6.00
CC(C)(C)C(=O)N1CCN(c2cnc3[nH]cc(/C=C/C(N)=O)c3c2)CC1 [Example 264, (E)-3-(5-(4-pivaloylpiperazin-1-yl)-1H-pyrrolo[2,3-b]pyridin-3-yl)acrylamide] | ≥ 6.00 | ≥ 6.00
NC(=O)/C=C\C(=O)Nc1c[nH]c2ncc(-c3ccccc3)cc12 [Example 234, N^1--(5-phenyl-1H-pyrrolo[2,3-b]pyridin-3-yl)maleamide] | < 6.00 | ≥ 6.00
CC(C)Oc1cc(-c2cnc3[nH]cc(/C=C/C(N)=O)c3c2)cc(C(F)(F)F)n1 [Example 272, (E)-3-(5-(2-isopropoxy-6-(trifluoromethyl)pyridin-4-yl)-1H-pyrrolo[2,3-b]pyridin-3-yl)acrylamide] | ≥ 6.00 | ≥ 6.00
